In paper PMC7162861, “Synthesis, cytotoxicity, pharmacokinetic profile, binding with DNA and BSA of new imidazo[1,2-a]pyrazine-benzo[d]imidazol-5-yl hybrids” (Scientific Reports, 2020):

What was measured:
[1] = Experimental log P, shake-flask method; assay type: physicochemical; conditions: n-octanol/phosphate buffer pH 7.4, read-out: Exp. Log P
Description: Partition coefficients or experimental log P values of all synthesized compounds (9–23, 30 and 31) were calculated using the shake-flask method. Log P values were determined using n-octanol and phosphate buffer (pH = 7.4) at 10:1 ratio of volumes. Stock solutions (10^−3 M) of compounds were prepared in DMSO. Glass vials were used to make final solutions i.e. stock solution (250 µL) and phosphate buffer (125 µL). To record the absorbance, wavelength was selected based on λmax of the respective compound. Initial absorbance (Ai) for every compound was noted consuming the stock solution in the buffer phase. Now added n-octanol to every vial and shaken well using a mechanical shaker for 50 minutes. To get separation of both phases, glass vials were centrifuged for 35 min. at 2500 rpm. Then, the layer of octanol was separated from glass vial. The final absorbance (Af) of each compound was recorded by using the buffer layer. The values of P for compounds were determined by the following equation (Eq. 8):8 P=Ai−Af/Af×Vw/Vo

logP [1]: 1.34
melting point: 193 to 196 °C
Structure (SMILES): Clc1ccc(-c2cn3ccnc3c(-c3ccc4c(c3)ncn4C3CCCCC3)n2)cc1 [Compound 18, 6-(4-chlorophenyl)-8-(1-cyclohexyl-1H-benzo[d]imidazol-5-yl)imidazo[1,2-a]pyrazine]
